In patent US20140031389A1, “SCREENING METHODS AND PHARMACEUTICAL COMPOSITIONS FOR THE TREATMENT OF INFLAMMATORY BOWEL DISEASES” (INSERM (INSTITUT NATIONAL DE LA SANTE ET DE LA RECHERCHE …, priority 2011, published 2014):

Tests used:
[1] = system: IL10/Nox1^dKO mice; assay: Salubrinal treatment of spontaneous colitis in IL10/Nox1^dKO mice; format: in vivo
Text: All SPF-reared C57B1/6-IL10/Nox1^dKO mice developed spontaneously colitis at 6/7 weeks and disease activity index (DAI) scores which became more severe with age, including diarrhea, high incidence of rectal bleeding, change in body and colon weights, and prolapses. None of WT and single-KO mice developed colitis during the time frame studied. […] We next measured epithelial permeability of FITC-dextran in segments of distal colon and indigenous bacterial translocation was identified in the spleen of 7 and 12-week-old mice. […] Consistent with previous findings in patients with UC^30,31, IL10/Nox1^dKO mice expressed almost 50% of microRNAs relevant in defining UC signature.
(§1) To assess the pathogenic role of goblet cells in UC, WT and Nox1^KO mice were subjected to oral administration of DSS or rectal administration of TNBS. […] IRE1beta and ATF6alpha branch signaling were extended in colonic epithelial cells as evidenced by the increased XBP-1 mRNA splicing, the induction of GRP78, GRP94, PDI at both mRNA and protein levels, and dilated cisternae and gross distortion of the ER in goblet cells. […] Consistent with reduced eIF2α phosphorylation, increased expression of PPP1R15A/GADD34, a stress-inducible protein that recruits the catalytic subunit of protein phosphatase 1 and promotes elF2alpha dephosphorylation, was detected in agreement with our previous data in humans^1. EIF2alpha phosphorylation is cytoprotective during ERS, because cells are sensitized to cell death when this pathway is genetically ablated^33 and protected when it is ectopically enforced^34. To test whether a selective pharmacological inhibitor of GADD34-mediated elF2alpha dephosphorylation may alleviate colitis, IL10/Nox1^dKO mice were treated with 1 mg/kg salubrinal^35 for up to three weeks.

[2] = system: GADD34-mediated elF2alpha dephosphorylation; assay: elF2alpha phosphorylation and ER stress markers in colonic mucosa of salubrinal-treated IL10/Nox1^dKO mice; format: in vivo
Text: as §1

[3] = IL10/Nox1^dKO mice, 1 mg/kg salubrinal for up to three weeks
[4] = salubrinal-treated IL10/Nox1^dKO mice, 1 mg/kg for up to three weeks

O=C(/C=C/c1ccccc1)NC(NC(=S)Nc1cccc2cccnc12)C(Cl)(Cl)Cl (stereo not drawn) [salubrinal, 3-phenyl-N-[2,2,2-trichloro-1-[[(8-quinolinylamino)thioxomethyl]amino]ethyl]-2-propenamide]
histological colitis score throughout the colon [1, 3]: strongly reduced | immune cell infiltration [1, 3]: markedly prevented | mucosal architecture and goblet cells [1, 3]: restored intact mucosal architecture with normal goblet cells | apoptosis of colonic mucosa ([1]; IL10/Nox1^dKO mice, 1 mg/kg salubrinal for up to three weeks, anti-apoptotic activity on CHOP expression): protected colonic mucosa against apoptosis | amount of colonic and splenic Treg cells [1, 4]: strongly decreased to baseline | levels of proinflammatory cytokines [1, 4]: strongly decreased to baseline | elF2alpha phosphorylation ([2]; colonic mucosa, IL10/Nox1^dKO mice, 1 mg/kg salubrinal for up to three weeks): robust elF2alpha phosphorylation | Grp78/Bip and Grp94 expression [2, 4]: trend toward reduced | localisation of salubrinal-induced phosphorylation of elF2alpha [2, 4]: mainly detected in colonic epithelial cells
